In general, IC50 refers to the concentration needed to halve the response being measured.

Experimental findings from ChEMBL document CHEMBL4680138, “A 18β-glycyrrhetinic acid conjugate with Vorinostat degrades HDAC3 and HDAC6 with improved antitumor effects” (Eur J Med Chem, 2020) are described below.

Calls of active or inactive are those of the source. The rule behind the calls is not given here.

One assay relates to PC-3. The assay is described as follows: Cytotoxicity against human PC-3 cells assessed as reduction in cell viability after 96 hrs by MTT assay. It is filed as functional, cell-based. The conditions noted are these: PC-3, 96 h. (In general: Tetrazolium dyes change colour on reduction, which living cells bring about.)
Assay [1] concerns HL-60. Briefly: Antiproliferative activity against human HL-60 cells assessed as cell growth inhibition after 72 hrs by trypan blue staining based cell counting assay. Type of assay: functional. The settings on record: HL-60, 72 h.
Assay [2] deals with HL-60. Briefly: Induction of apoptosis in human HL-60 cells assessed as late apoptotic cells at 2 uM measured after 24 hrs by Annexin-V/FITC and propidium iodide staining based flow cytometry (reference value: 7.24 %). It is filed as functional.
Assay [3] deals with HL-60. Briefly: Induction of apoptosis in human HL-60 cells assessed as live cells at 0.5 uM measured after 24 hrs by Annexin-V/FITC and propidium iodide staining based flow cytometry (reference value: 89.29 %). It is filed as functional. (Flow cytometry measures light scatter and fluorescence of single cells or particles in a stream.)
For assay [4], the system named is HL-60. The assay is described as follows: Induction of apoptosis in human HL-60 cells assessed as early apoptotic cells at 2 uM measured after 24 hrs by Annexin-V/FITC and propidium iodide staining based flow cytometry (reference value: 2.46 %). Type of assay: functional.
Assay [5] has as its system HL-60. The assay is described as follows: Induction of apoptosis in human HL-60 cells assessed as early apoptotic cells at 0.5 uM measured after 24 hrs by Annexin-V/FITC and propidium iodide staining based flow cytometry (reference value: 2.46 %). Type of assay: functional.
Assay [6] deals with HL-60. Briefly: Induction of apoptosis in human HL-60 cells assessed as early apoptotic cells at 1 uM measured after 24 hrs by Annexin-V/FITC and propidium iodide staining based flow cytometry (reference value: 2.46 %). It is filed as functional.
Assay [7] has as its system HL-60. The assay is described as follows: Induction of apoptosis in human HL-60 cells assessed as increase in accumulation at sub-G1 phase at 2 uM after 24 hrs by propidium iodide staining based flow cytometry (reference value: 2.72 %). It is filed as functional.
The test system of assay [8] is HL-60. Briefly: Induction of apoptosis in human HL-60 cells assessed as live cells at 2 uM measured after 24 hrs by Annexin-V/FITC and propidium iodide staining based flow cytometry (reference value: 89.29 %). It is filed as functional.
Assay [9] deals with HL-60. Briefly: Induction of apoptosis in human HL-60 cells assessed as late apoptotic cells at 1 uM measured after 24 hrs by Annexin-V/FITC and propidium iodide staining based flow cytometry (reference value: 7.24 %). It is filed as functional.
The subject of assay [10] is HL-60. Briefly: Induction of apoptosis in human HL-60 cells assessed as increase in accumulation at sub-G1 phase at 1 uM after 24 hrs by propidium iodide staining based flow cytometry (reference value: 2.72 %). It is filed as functional.
Assay [11] concerns HL-60. Briefly: Induction of apoptosis in human HL-60 cells assessed as increase in accumulation at sub-G1 phase at 0.5 uM after 24 hrs by propidium iodide staining based flow cytometry (reference value: 2.72 %). It is filed as functional.
In assay [12] the test system is HL-60. Briefly: Induction of apoptosis in human HL-60 cells assessed as necrotic cells at 1 uM measured after 24 hrs by Annexin-V/FITC and propidium iodide staining based flow cytometry (reference value: 1.01 %). Type of assay: functional.
For assay [13], the system named is HL-60. The assay is described as follows: Induction of apoptosis in human HL-60 cells assessed as necrotic cells at 0.5 uM measured after 24 hrs by Annexin-V/FITC and propidium iodide staining based flow cytometry (reference value: 1.01 %). Type of assay: functional.
The test system of assay [14] is HL-60. Briefly: Induction of apoptosis in human HL-60 cells assessed as late apoptotic cells at 0.5 uM measured after 24 hrs by Annexin-V/FITC and propidium iodide staining based flow cytometry (reference value: 7.24 %). It is filed as functional.
The test system of assay [15] is HL-60. The assay is described as follows: Induction of apoptosis in human HL-60 cells assessed as live cells at 1 uM measured after 24 hrs by Annexin-V/FITC and propidium iodide staining based flow cytometry (reference value: 89.29 %). It is filed as functional.
Assay [16] has as its system HL-60. The assay is described as follows: Upregulation of acetylated H3 level in human HL-60 cells at 2 uM measured after 12 hrs by Western blot analysis. It is filed as functional, cell-based. A general note: In western blotting, separated proteins are transferred to a membrane and probed.
For assay [17], the system named is HL-60. Briefly: Induction of apoptosis in human HL-60 cells assessed as necrotic cells at 2 uM measured after 24 hrs by Annexin-V/FITC and propidium iodide staining based flow cytometry (reference value: 1.01 %). Type of assay: functional.
For assay [18], the system named is HL-60. The assay is described as follows: Upregulation of acetylated alpha-tubulin level in human HL-60 cells at 2 uM measured after 12 hrs by Western blot analysis. It is filed as functional, cell-based.

With `CC1(C)[C@@H](O)CC[C@]2(C)[C@H]3C(=O)C=C4[C@@H]5C[C@@](C)(C(=O)OCCCOc6ccc(NC(=O)CCCC(=O)NO)cc6)CC[C@]5(C)CC[C@@]4(C)[C@]3(C)CC[C@@H]12`, the IC50 with PC-3 is 4.43 µM; in the assay with HL-60 [1], 1.34 µM.

For the compound `CC1(C)[C@@H](O)CC[C@]2(C)[C@H]3C(=O)C=C4[C@@H]5C[C@@](C)(C(=O)NCCCCCC(=O)NO)CC[C@]5(C)CC[C@@]4(C)[C@]3(C)CC[C@@H]12`, the IC50 with PC-3 stood at 13.6 µM; in the assay with HL-60 [1], 8.78 µM.

On to `CC1(C)[C@@H](O)CC[C@]2(C)[C@H]3C(=O)C=C4[C@@H]5C[C@@](C)(C(=O)NCCCC(=O)NO)CC[C@]5(C)CC[C@@]4(C)[C@]3(C)CC[C@@H]12`, for which the figures for the IC50 with PC-3 and in the assay on HL-60 [1] were 25.1 µM and 21.6 µM, respectively.

As to `CC1(C)[C@@H](O)CC[C@]2(C)[C@H]3C(=O)C=C4[C@@H]5C[C@@](C)(C(=O)N6CCN(c7ccc(NC(=O)CCCCCCC(=O)NO)cc7)CC6)CC[C@]5(C)CC[C@@]4(C)[C@]3(C)CC[C@@H]12`, the results for the 50% inhibitory concentration (IC50) in the assay on PC-3 and in the assay with HL-60 [1] were 2.48 µM and 0.72 µM, respectively.

In the case of `COC(=O)[C@@]1(C)CC[C@]2(C)CC[C@]3(C)C(=CC(=O)[C@@H]4[C@@]5(C)C=C(C#N)C(=O)C(C)(C)[C@@H]5CC[C@]43C)[C@@H]2C1`, the Activity was found to be 16.96% in the assay with HL-60 [2]; 87.34% in the assay with HL-60 [3]; 2.52% in the assay on HL-60 [4]; 1.77% with HL-60 [5]; 3.27% in the assay with HL-60 [6]; 19.18% in the assay on HL-60 [7]. In addition, the Activity in the assay with HL-60 [8] is listed as 77.42%; in the assay on HL-60 [9], 13.31%; with HL-60 [10], 3.57%; in the assay on HL-60 [11], 2.91%; in the assay with HL-60 [12] it was 2.31%; with HL-60 [13], 1.89%. The figures for the Activity in the assay on HL-60 [14], with HL-60 [15] and in the assay on HL-60 [17] were 9%, 81.11% and 3.1%, respectively. Moreover, the IC50 in the assay with PC-3 amounted to 1.68 µM; with HL-60 [1], 1.35 µM. The result with HL-60 [16] was inactive.

Turning to `CC1(C)[C@@H](O)CC[C@]2(C)[C@H]3C(=O)C=C4[C@@H]5C[C@@](C)(C(=O)OCCCOc6ccc(NC(=O)CCCCCCC(=O)NO)cc6)CC[C@]5(C)CC[C@@]4(C)[C@]3(C)CC[C@@H]12`, the results for the IC50 in the assay on PC-3 and with HL-60 [1] were 5.37 µM and 2.77 µM, respectively.

For `CC1(C)[C@@H](O)CC[C@]2(C)[C@H]3C(=O)C=C4[C@@H]5C[C@@](C)(C(=O)OCCCOc6ccc(NC(=O)CCCCC(=O)NO)cc6)CC[C@]5(C)CC[C@@]4(C)[C@]3(C)CC[C@@H]12`, the figures for the IC50 in the assay on PC-3 and in the assay on HL-60 [1] were 3.95 µM and 1.42 µM, respectively.

For `CC1(C)[C@@H](O)CC[C@]2(C)[C@H]3C(=O)C=C4[C@@H]5C[C@@](C)(C(=O)OCCOc6ccc(NC(=O)CCCCCCC(=O)NO)cc6)CC[C@]5(C)CC[C@@]4(C)[C@]3(C)CC[C@@H]12`, the IC50 with PC-3 was found to be 8.43 µM; in the assay with HL-60 [1], 4.42 µM.

For the compound `CC1(C)[C@@H](O)CC[C@]2(C)[C@H]3C(=O)C=C4[C@@H]5C[C@@](C)(C(=O)NCCCCC(=O)NO)CC[C@]5(C)CC[C@@]4(C)[C@]3(C)CC[C@@H]12`, the IC50 came out at 18.5 µM with PC-3 and 15.5 µM with HL-60 [1].

Regarding `CC1(C)[C@@H](O)CC[C@]2(C)[C@H]3C(=O)C=C4[C@@H]5C[C@@](C)(C(=O)OCCCOc6ccc(NC(=O)CCCCCC(=O)NO)cc6)CC[C@]5(C)CC[C@@]4(C)[C@]3(C)CC[C@@H]12`, the IC50 with PC-3 amounted to 4.31 µM; in the assay on HL-60 [1], 1.62 µM.

For the compound `CC1(C)[C@@H](O)CC[C@]2(C)[C@H]3C(=O)C=C4[C@@H]5C[C@@](C)(C(=O)N6CCN(c7ccc(NC(=O)CCCC(=O)NO)cc7)CC6)CC[C@]5(C)CC[C@@]4(C)[C@]3(C)CC[C@@H]12`, the IC50 came to 11.8 µM in the assay on PC-3 and 4.79 µM with HL-60 [1].

In the case of `CC1(C)[C@@H](O)CC[C@]2(C)[C@H]3C(=O)C=C4[C@@H]5C[C@@](C)(C(=O)N6CCN(c7ccc(NC(=O)CCCCCC(=O)NO)cc7)CC6)CC[C@]5(C)CC[C@@]4(C)[C@]3(C)CC[C@@H]12`, the results for the IC50 in the assay on PC-3 and with HL-60 [1] were 3.09 µM and 1.79 µM, respectively.

As to `CC1(C)[C@@H](O)CC[C@]2(C)[C@H]3C(=O)C=C4[C@@H]5C[C@@](C)(C(=O)OCCOc6ccc(NC(=O)CCCCCC(=O)NO)cc6)CC[C@]5(C)CC[C@@]4(C)[C@]3(C)CC[C@@H]12`, the values for the IC50 in the assay on PC-3 and with HL-60 [1] were 3.68 µM and 2.83 µM, respectively.

For the compound `O=C(CCCCCCC(=O)Nc1ccccc1)NO` [VORINOSTAT], the Activity in the assay on HL-60 [2] is listed as 39.71%; in the assay with HL-60 [3] it was 86.69%; in the assay on HL-60 [4], 5.02%; in the assay on HL-60 [5], 2.41%; in the assay with HL-60 [6], 2.42%; in the assay on HL-60 [7], 43.31%. The Activity with HL-60 [8] stood at 49.4%; in the assay with HL-60 [9] it was 12.96%; in the assay with HL-60 [10] it was 5.34%; in the assay with HL-60 [11], 2.07%; in the assay on HL-60 [12] it was 2.36%; in the assay with HL-60 [13], 1.94%. For the same compound, the Activity in the assay on HL-60 [14] was determined as 8.95%; in the assay on HL-60 [15] it was 82.27%; with HL-60 [17], 5.87%. In addition, the result in the assay on HL-60 [18] and with HL-60 [16] was Active.

As to `CC1(C)[C@@H](O)CC[C@]2(C)[C@H]3C(=O)C=C4[C@@H]5C[C@@](C)(C(=O)N6CCN(c7ccc(NC(=O)CCCCC(=O)NO)cc7)CC6)CC[C@]5(C)CC[C@@]4(C)[C@]3(C)CC[C@@H]12`, the values for the half-maximal inhibitory concentration (IC50) in the assay on PC-3 and in the assay on HL-60 [1] were 5.53 µM and 3.35 µM, respectively.

For the compound `CC1(C)[C@@H](O)CC[C@]2(C)[C@H]3C(=O)C=C4[C@@H]5C[C@@](C)(C(=O)O)CC[C@]5(C)CC[C@@]4(C)[C@]3(C)CC[C@@H]12` [ENOXOLONE], the IC50 in the assay with PC-3 was 105 µM; in the assay on HL-60 [1] it was 55.3 µM.

Take `CC1(C)[C@@H](O)CC[C@]2(C)[C@H]3C(=O)C=C4[C@@H]5C[C@@](C)(C(=O)NCCCCCCC(=O)NO)CC[C@]5(C)CC[C@@]4(C)[C@]3(C)CC[C@@H]12`: the IC50 in the assay with PC-3 is 11.8 µM; in the assay on HL-60 [1], 9.53 µM.

Regarding `CC1(C)[C@@H](O)CC[C@]2(C)[C@H]3C(=O)C=C4[C@@H]5C[C@@](C)(C(=O)OCCOc6ccc(NC(=O)CCCC(=O)NO)cc6)CC[C@]5(C)CC[C@@]4(C)[C@]3(C)CC[C@@H]12`, the IC50 amounted to 6.94 µM in the assay with PC-3 and 1.53 µM in the assay on HL-60 [1].

On to `CC1(C)[C@@H](O)CC[C@]2(C)[C@H]3C(=O)C=C4[C@@H]5C[C@@](C)(C(=O)OCCOc6ccc(NC(=O)CCCCC(=O)NO)cc6)CC[C@]5(C)CC[C@@]4(C)[C@]3(C)CC[C@@H]12`, for which the IC50 was determined as 8.22 µM in the assay with PC-3 and 2.08 µM in the assay with HL-60 [1].
